According to ChEMBL document CHEMBL1143181, “2-Aminoresorcinol is a potent alpha-glucosidase inhibitor” (Bioorg Med Chem Lett, 2008):

Key:
[1] = target: T1, Sucrase-isomaltase, intestinal (Rattus norvegicus, UniProt P23739); test: Inhibition of rat intestinal sucrase
[2] = target: Sucrase-isomaltase, intestinal (Rattus norvegicus) (UniProt P23739); test: Inhibition of rat intestinal sucrase at 500 uM
[3] = target: Alpha-galactosidase (Coffea arabica) (UniProt Q5DUH8); test: Inhibition of green coffee bean alpha galactosidase; conditions: concentration not given here
[4] = system: Canavalia ensiformis; test: Inhibition of jack bean alpha mannosidase; conditions: concentration not given here
[5] = system: Prunus dulcis; test: Inhibition of almond beta glucosidase; conditions: concentration not given here
[6] = target: T2, Beta-galactosidase (Bos taurus) (UniProt Q58D55); test: Inhibition of bovine liver beta galactosidase; conditions: concentration not given here
T2 sequence (whole entry): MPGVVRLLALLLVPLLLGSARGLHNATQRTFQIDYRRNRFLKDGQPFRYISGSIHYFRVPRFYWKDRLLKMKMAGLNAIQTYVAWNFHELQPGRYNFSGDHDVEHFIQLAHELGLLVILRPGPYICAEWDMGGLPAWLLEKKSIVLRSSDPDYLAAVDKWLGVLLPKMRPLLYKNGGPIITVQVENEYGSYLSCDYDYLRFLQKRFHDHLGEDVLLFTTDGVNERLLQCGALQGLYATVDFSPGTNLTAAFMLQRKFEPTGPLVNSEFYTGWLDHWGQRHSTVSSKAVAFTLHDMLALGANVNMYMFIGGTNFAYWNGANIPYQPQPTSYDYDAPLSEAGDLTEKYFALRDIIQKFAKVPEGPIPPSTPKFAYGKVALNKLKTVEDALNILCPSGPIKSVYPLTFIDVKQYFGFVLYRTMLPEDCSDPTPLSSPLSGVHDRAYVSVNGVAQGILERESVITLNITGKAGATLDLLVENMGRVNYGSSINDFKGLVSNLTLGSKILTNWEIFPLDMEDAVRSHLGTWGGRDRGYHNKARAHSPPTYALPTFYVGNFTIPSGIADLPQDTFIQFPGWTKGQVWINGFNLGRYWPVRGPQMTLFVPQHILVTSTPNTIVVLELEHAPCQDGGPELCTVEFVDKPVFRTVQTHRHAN

[7] = target: T3, Alpha-amylase (Sus scrofa domesticus) (UniProt Q7M328); test: Inhibition of pig pancreas alpha amylase; conditions: concentration not given here
T3 sequence (whole entry): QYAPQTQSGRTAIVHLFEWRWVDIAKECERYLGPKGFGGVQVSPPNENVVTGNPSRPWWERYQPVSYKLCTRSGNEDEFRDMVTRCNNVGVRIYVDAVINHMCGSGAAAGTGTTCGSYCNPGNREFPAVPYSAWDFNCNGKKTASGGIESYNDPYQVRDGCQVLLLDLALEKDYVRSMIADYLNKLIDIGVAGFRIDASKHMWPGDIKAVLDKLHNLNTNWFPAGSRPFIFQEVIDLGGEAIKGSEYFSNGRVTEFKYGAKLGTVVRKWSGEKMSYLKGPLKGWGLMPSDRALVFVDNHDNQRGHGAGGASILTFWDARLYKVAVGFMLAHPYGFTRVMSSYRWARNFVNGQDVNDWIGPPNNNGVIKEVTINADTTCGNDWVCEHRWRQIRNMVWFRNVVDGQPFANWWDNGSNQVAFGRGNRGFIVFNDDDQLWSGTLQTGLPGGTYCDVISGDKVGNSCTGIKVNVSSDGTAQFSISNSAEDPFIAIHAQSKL

[8] = target: T1, Sucrase-isomaltase, intestinal; test: Inhibition of sucrose hydrolyzing activity of rat intestinal alpha glucosidase
[9] = target: Sucrase-isomaltase, intestinal (Rattus norvegicus) (UniProt P23739); test: Inhibition of rat intestinal isomaltase at 500 uM

Sucrase-isomaltase, intestinal (Rattus norvegicus), sequence (P23739 1-1013 limits assumed): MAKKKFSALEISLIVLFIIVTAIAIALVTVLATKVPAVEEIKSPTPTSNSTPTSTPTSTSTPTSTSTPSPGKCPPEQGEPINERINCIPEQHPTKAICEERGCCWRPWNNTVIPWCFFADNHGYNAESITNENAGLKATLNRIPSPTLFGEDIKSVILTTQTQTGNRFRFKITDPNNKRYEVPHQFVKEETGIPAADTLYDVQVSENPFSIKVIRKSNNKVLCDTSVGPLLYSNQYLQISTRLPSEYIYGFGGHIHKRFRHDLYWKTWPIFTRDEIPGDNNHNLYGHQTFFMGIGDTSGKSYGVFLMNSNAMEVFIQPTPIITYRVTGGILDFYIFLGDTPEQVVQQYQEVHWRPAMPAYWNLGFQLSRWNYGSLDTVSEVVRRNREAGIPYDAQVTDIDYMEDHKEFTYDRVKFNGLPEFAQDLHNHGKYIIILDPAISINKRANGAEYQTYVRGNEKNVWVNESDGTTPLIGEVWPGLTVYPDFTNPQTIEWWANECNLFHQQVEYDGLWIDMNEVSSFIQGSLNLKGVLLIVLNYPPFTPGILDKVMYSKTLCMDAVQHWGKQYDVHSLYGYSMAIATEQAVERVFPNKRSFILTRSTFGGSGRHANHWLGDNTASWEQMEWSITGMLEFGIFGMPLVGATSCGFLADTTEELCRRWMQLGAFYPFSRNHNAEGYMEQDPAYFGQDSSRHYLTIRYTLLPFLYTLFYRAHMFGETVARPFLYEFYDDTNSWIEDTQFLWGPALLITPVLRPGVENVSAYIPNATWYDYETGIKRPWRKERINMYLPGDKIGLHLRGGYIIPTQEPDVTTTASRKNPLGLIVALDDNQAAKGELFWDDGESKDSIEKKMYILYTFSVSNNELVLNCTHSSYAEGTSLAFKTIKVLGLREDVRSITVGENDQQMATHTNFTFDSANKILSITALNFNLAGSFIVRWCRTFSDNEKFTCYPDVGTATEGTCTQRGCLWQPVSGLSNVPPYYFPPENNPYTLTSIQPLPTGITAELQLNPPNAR
Sucrase-isomaltase, intestinal (Rattus norvegicus), sequence (P23739 1014-1841 limits assumed): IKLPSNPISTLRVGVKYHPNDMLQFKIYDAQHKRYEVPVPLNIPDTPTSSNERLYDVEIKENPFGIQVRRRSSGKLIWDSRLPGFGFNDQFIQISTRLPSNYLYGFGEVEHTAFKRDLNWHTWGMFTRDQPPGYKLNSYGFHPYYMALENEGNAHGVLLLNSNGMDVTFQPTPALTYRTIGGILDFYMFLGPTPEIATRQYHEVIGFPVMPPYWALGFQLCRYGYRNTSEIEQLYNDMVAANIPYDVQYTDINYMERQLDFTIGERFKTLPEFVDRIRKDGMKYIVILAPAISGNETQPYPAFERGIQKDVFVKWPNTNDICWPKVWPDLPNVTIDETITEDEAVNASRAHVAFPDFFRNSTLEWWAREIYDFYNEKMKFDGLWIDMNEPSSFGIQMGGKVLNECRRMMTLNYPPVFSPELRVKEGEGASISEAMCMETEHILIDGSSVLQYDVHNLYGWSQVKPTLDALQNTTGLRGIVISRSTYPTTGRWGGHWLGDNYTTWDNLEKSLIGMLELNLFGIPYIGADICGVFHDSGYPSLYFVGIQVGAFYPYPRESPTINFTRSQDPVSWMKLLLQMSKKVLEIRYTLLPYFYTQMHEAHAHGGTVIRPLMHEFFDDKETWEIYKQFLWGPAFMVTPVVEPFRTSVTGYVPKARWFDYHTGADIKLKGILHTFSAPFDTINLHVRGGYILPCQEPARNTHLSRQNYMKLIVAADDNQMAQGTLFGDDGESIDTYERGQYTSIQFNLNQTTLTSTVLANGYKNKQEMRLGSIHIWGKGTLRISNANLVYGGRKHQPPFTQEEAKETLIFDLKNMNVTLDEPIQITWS
T1 sequence (P23739 1-1013 limits assumed): as the sequence (P23739 1-1013 limits assumed) above
T1 sequence (P23739 1014-1841 limits assumed): as the sequence (P23739 1014-1841 limits assumed) above
Alpha-galactosidase (Coffea arabica), sequence (Q5DUH8 as listed by the source): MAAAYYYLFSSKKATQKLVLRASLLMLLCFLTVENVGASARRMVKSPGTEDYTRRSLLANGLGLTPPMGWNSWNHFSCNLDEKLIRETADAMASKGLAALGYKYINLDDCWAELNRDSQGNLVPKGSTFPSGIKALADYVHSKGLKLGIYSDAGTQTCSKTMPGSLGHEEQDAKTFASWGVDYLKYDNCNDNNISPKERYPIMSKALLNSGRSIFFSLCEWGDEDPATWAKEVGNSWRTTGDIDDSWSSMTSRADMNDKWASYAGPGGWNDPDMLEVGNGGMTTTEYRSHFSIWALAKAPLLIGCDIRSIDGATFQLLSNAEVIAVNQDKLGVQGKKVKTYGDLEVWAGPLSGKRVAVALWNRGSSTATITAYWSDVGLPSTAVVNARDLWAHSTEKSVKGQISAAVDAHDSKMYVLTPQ

Compound	IC50 [1]	inhibition [2]	inhibition [3]	inhibition [4]	inhibition [5]	inhibition [6]	inhibition [7]	Ki [8]	inhibition [9]
N[C@H]1[C@H](O)CCC[C@@H]1O	> 500 µM	10%							
Nc1c(O)cccc1O	4.2 µM		8%	3%	12%	4%	11%	4.2 µM	
Nc1ccc(O)cc1O	> 500 µM	46%							
Nc1c(O)cc2oc(-c3ccccc3)cc(=O)c2c1O	2.4 µM		6%	7%	19%	10%	12%		32%
Oc1cccc(O)c1O [PYROGALLOL]	> 500 µM	42%							
O=c1cc(-c2ccccc2)oc2cc(O)c(O)c(O)c12 [BAICALEIN]	52 µM								
CC(=O)c1ccc(O)c(N)c1O	3.6 µM		10%	4%	7%	5%	15%		
